Substitutions are numbered along the chain they refer to.
How the values were obtained:
GH110A [1] = target: T1, GH110A (Pseudoalteromonas distincta, UniProt Z9OJ40UL04); assay: X-ray crystal structure, soaked; type: binding; conditions: -1 subsite
T1 construct: without predicted signal peptide; pET28a N-terminal His-tag, cut with thrombin for crystals; E. coli host
T1 sequence (Z9OJ40UL04 24-600): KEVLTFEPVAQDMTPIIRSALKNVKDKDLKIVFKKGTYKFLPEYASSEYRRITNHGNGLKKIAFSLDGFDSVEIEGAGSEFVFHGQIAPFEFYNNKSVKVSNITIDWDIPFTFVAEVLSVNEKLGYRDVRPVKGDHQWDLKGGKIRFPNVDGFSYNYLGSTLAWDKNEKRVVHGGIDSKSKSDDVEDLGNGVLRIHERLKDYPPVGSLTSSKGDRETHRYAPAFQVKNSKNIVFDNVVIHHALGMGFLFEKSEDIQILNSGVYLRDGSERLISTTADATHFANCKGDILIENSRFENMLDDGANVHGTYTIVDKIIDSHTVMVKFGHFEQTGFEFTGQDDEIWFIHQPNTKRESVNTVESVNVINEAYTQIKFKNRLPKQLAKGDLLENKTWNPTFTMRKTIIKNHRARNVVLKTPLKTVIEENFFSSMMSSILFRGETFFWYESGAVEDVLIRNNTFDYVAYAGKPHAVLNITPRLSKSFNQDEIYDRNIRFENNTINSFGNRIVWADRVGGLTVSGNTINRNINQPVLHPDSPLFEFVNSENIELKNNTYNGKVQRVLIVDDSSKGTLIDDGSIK

GH2 [2] = target: T2, GH2 (Pseudoalteromonas distincta, UniProt Z9L5V2N5Y9); assay: X-ray crystal structure, soaked; type: binding; design: without predicted signal peptide; pET28a N-terminal His-tag, cut with thrombin for crystals; E. coli Tuner (DE3); conditions: inhibitor in -1 subsite, capping loop closed
T2 sequence (Z9L5V2N5Y9 24-826): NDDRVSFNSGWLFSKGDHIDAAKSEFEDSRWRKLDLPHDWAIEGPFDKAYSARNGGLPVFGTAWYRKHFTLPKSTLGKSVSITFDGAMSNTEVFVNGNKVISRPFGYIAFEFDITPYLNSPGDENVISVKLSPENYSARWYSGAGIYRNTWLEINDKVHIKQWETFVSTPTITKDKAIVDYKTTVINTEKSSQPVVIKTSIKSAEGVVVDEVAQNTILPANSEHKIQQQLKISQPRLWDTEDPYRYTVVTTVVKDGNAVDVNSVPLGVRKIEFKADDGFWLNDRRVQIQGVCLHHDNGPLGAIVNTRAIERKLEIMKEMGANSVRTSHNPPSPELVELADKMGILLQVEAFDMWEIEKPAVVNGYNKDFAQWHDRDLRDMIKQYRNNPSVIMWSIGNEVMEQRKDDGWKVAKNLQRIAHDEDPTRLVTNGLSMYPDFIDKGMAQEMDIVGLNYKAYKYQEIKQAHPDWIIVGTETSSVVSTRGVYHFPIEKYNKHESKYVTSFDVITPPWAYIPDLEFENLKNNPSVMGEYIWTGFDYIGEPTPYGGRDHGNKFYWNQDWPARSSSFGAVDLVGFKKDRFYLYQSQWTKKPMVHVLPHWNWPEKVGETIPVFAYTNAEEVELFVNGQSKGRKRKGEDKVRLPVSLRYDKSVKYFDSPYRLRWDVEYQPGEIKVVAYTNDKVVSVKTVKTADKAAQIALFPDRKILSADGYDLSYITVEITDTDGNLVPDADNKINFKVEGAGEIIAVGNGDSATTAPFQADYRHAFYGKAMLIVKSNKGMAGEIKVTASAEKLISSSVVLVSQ

GH2 [3] = target: T2, GH2; assay: chromogenic activity assay (data not shown)
GH110A [4] = target: T3, GH110A (Pseudoalteromonas distincta, UniProt Z9OJ40UL04, D324N, form not given); assay: X-ray crystal structure, soaked; type: binding; conditions: inactive mutant; trisaccharide G6S in -1 subsite modelled, partial occupancy in +1 and +2
T3 construct: without predicted signal peptide; pET28a N-terminal His-tag, cut with thrombin for crystals; E. coli host
T3 sequence (Z9OJ40UL04 24-600 D324N): T1 sequence (Z9OJ40UL04 24-600) with D301N

S1_8B [5] = target: T4, S1_8B (Pseudoalteromonas distincta, UniProt Z9FD83UQX5); assay: X-ray crystal structure, soaked; type: binding; conditions: inactive mutant (printed C84S); 2.1 Å; modelled as fully sulfated Hex4S6
T4 construct: without predicted signal peptide; pET28a N-terminal His-tag, cut with thrombin for crystals; E. coli BL21 (DE3) Star
T4 sequence (Z9FD83UQX5 24-541): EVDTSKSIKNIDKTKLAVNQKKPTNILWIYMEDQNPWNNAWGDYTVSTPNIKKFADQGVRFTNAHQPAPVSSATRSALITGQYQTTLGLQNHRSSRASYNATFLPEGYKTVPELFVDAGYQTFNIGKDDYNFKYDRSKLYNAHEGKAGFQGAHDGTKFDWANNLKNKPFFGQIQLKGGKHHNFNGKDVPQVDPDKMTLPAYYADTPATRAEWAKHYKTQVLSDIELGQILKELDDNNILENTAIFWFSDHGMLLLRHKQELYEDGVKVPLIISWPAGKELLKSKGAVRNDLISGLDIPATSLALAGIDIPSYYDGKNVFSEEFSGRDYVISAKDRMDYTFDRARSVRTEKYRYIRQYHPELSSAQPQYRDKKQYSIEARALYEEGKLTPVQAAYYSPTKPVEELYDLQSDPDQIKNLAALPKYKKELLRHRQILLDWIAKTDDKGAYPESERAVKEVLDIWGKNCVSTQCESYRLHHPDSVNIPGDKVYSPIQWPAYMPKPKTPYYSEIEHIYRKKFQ

S1_8B [6] = target: T5, S1_8B (Pseudoalteromonas distincta, UniProt Z9FD83UQX5, S94C, form not given); assay: preparative desulfation, product seen in crystal complexes; type: biochemical; conditions: 2-O-desulfation of the non-reducing end
T5 construct: without predicted signal peptide; pET28a N-terminal His-tag, cut with thrombin for crystals; E. coli BL21 (DE3) Star
T5 sequence (Z9FD83UQX5 24-541 S94C): T4 sequence (Z9FD83UQX5 24-541) with S71C

O=S(=O)(O)OC[C@H]1OC(O)[C@H](O)[C@@H](O)[C@H]1O (stereo partly drawn) [G6S]
X-ray crystal structure, soaked (GH110A [1]): We determined the structure of GH110A in complex with the monosaccharide G6S

OC[C@H]1CNC[C@@H](O)[C@H]1O [GIF, galactoisofagomine]
X-ray crystal structure, soaked (GH2 [2]): The structure of GH2 in complex with the inhibitor galactoisofagomine (GIF)

O=[N+]([O-])c1ccc(O[C@@H]2O[C@H](CO)[C@H](O)[C@H](O)[C@H]2O)cc1 [pNP-β-Gal, pNP-β-D-galactopyranoside]
chromogenic activity assay (data not shown) (GH2 [3]): GH2 was active on pNP-β-D-galactopyranoside (pNP-β-Gal; not shown)

O=S(=O)(O)OC[C@H]1O[C@H](O[C@H]2[C@@H](O)[C@@H](CO)O[C@@H](O[C@@H]3[C@H](O)[C@@H](OS(=O)(=O)O)[C@@H](O[C@H]4[C@@H](O)[C@@H](CO)OC(O)[C@@H]4OS(=O)(=O)O)O[C@@H]3COS(=O)(=O)O)[C@@H]2OS(=O)(=O)O)[C@H](O)[C@@H](O)[C@H]1O (stereo partly drawn) [λ-NC4 pre-treated with S1_8B]
X-ray crystal structure, soaked (GH110A [4]): determining its structure in complex with λ−NC4 that was pre-treated with S1_8B

O=S(=O)(O)OC[C@H]1O[C@H](O[C@H]2[C@@H](O)[C@@H](CO)O[C@@H](O[C@@H]3[C@H](O)[C@@H](OS(=O)(=O)O)[C@@H](O[C@H]4[C@@H](O)[C@@H](CO)OC(O)[C@@H]4OS(=O)(=O)O)O[C@@H]3COS(=O)(=O)O)[C@@H]2OS(=O)(=O)O)[C@H](OS(=O)(=O)O)[C@@H](O)[C@H]1O (stereo partly drawn) [λ-NC4, λ-neocarratetraose]
X-ray crystal structure, soaked (S1_8B [5]): We were able to model both tetrasaccharides as fully sulfated λ−NC4 (i.e., Hex4S6)
preparative desulfation, product seen in crystal complexes (S1_8B [6]): pretreated with S1_8B to convert the non-reducing end residue to G6S

From paper PMC12549532, “The complete λ-carrageenan depolymerization cascade from a marine Pseudoalteromonad revealed by structural analysis of the enzymes” (The Journal of Biological Chemistry, 2025)
